Test results from patent publication US12084445B2, “Broad-spectrum carbapenems” (VenatoRx Pharmaceuticals, Inc., priority 2018, dated 2024).

Legend:
Assay type in all cases: cell-based
[1] = test system: P. aeruginosa ATCC 27853 (wild-type/QC strain); assay: broth microdilution MIC assay, P. aeruginosa ATCC 27853; settings: Pseudomonas aeruginosa, ATCC27853; Table 5; P. aeruginosa 27853; read-out: P. aeruginosa 27853 MIC
Protocol: (§1) To determine the ability of test compounds to potentiate the inhibition of the growth of bacterial strains, classic cell-based broth microdilution MIC assays were employed. MIC assays are performed according to CLSI methods except where otherwise noted (CLSI, 2011 and CLSI, 2009). The reference strains S. aureus ATCC 29213 (methicillin sensitive), S. aureus ATCC 33591 (methicillin-resistant), E. coli ATCC 25922 (wild-type/QC strain), P. aeruginosa ATCC 27853 (wild-type/QC strain), and the clinical isolate P. aeruginosa PA 8 were used to determine the ability of the exemplary carbapenem compounds to inhibit bacterial growth. An expanded panel of methicillin resistance S. aureus (MRSA) and Pseudomonas was also used to determine the ability of exemplary carbapenem compounds to inhibit bacterial growth across a broader representation of those species. To determine activity in MRSA and in addition to S. aureus ATCC 33591, S. aureus USA 300, USA 400 and USA 600, some of the most common clones found to cause human infection, were also used. To further gauge the impact on the carbapenem compounds due to various resistance mechanisms in Pseudomonas, the following strains were included: P. aeruginosa 35151 (hyper-permeable strain), P. aeruginosa AmexAB-OprM (an efflux pump knockout), and P. aeruginosa PA 3 (a clinical isolate of reduced carbapenem susceptibility). Briefly, cryo-preserved bacterial cultures of clinical strains are streaked for isolation on appropriate agar medium, in this case Mueller Hinton II agar. Following incubation to allow formation of colonies, these plates are sealed with parafilm and stored refrigerated for up to two weeks. For preparation of assay inocula and to ensure low variability, at least 5 colonies are picked from the agar plates with an inoculating loop and aseptically transferred to a culture tube containing 3 mL of Mueller-Hinton Broth (supplemented with divalent cations to required levels based on Manufacturers' specification). The broth culture is grown for 3-5 hours at 37° C. with shaking at 200 rpm. Meanwhile, 2-fold serial dilutions of test compounds are conducted in a 96 well plate with a final volume of 75 μL per well at 2-fold the final desired concentration. After the dilution plates are set up the growing cultures are then diluted in a cuvette containing MH II broth and the optical density is measured at 600 nm. Inocula are diluted such that 75 μL of this culture in Mueller-Hinton Broth results in a starting bacterial concentration of 5×10^5 CFU/mL when added to the dilution plates. The plates are incubated 16-20 hours at 37° C. The MIC is read visually as the lowest concentration well with no bacterial growth.
(§2) Representative results are shown in Tables 3, 4, and 5 where A represents an MIC>32 μg/mL, B represents an MIC between 8 and 32 μg/mL inclusive, C represents an MIC between 1 and 4 μg/mL inclusive, and D represents an MIC of <1 μg/mL. NT=Not Tested.

[2] = test system: S. aureus ATCC 33591 (methicillin-resistant); assay: broth microdilution MIC assay, S. aureus ATCC 33591; settings: Staphylococcus aureus, ATCC33591; Table 4; S. aureus 33591; read-out: S. aureus 33591 MIC
Protocol: as §1, §2

[3] = test system: S. aureus USA600; assay: broth microdilution MIC assay, S. aureus USA 600; settings: Staphylococcus aureus; Table 4; S. aureus USA600; read-out: S. aureus USA600 MIC
Protocol: as §1, §2

[4] = test system: P. aeruginosa 35151 (hyper-permeable strain); assay: broth microdilution MIC assay, P. aeruginosa 35151; settings: Pseudomonas aeruginosa, read-out: P. aeruginosa 35151 MIC
Protocol: as §1, §2

[5] = test system: P. aeruginosa ΔmexAB-OprM (an efflux pump knockout); assay: broth microdilution MIC assay, P. aeruginosa ΔmexAB-OprM; settings: Pseudomonas aeruginosa, 20 h, read-out: P. aeruginosa ΔmexAB-OprM MIC
Protocol: as §1, §2

[6] = test system: S. aureus USA 300; assay: broth microdilution MIC assay, S. aureus USA 300; settings: Staphylococcus aureus; Table 4; S. aureus USA300; read-out: S. aureus USA300 MIC
Protocol: as §1, §2

[7] = test system: E. coli ATCC 25922 (wild-type/QC strain); assay: broth microdilution MIC assay, E. coli ATCC 25922; settings: Escherichia coli, ATCC25922; Table 4; E. coli 25922; read-out: E. coli 25922 MIC
Protocol: as §1, §2

Row | SMILES | MIC [1] | MIC [2] | MIC [3] | MIC [4] | MIC [5] | MIC [6] | MIC [7]
1 | C[C@@H](O)[C@H]1C(=O)N2C(C(=O)O)=C(SC3CN(CC4CCCNC4)C3)[C@H](C)[C@H]12 (stereo partly drawn) [Example 57, (4R,5S,6S)-6-((R)-1-hydroxyethyl)-4-methyl-7-oxo-3-((1-(piperidin-3-ylmethyl)azetidin-3-yl)thio)-1-azabicyclo[3.2.0]hept-2-ene-2-carboxylic acid] | 1 to 4 µg/mL | 8 to 32 µg/mL | 1 to 4 µg/mL | < 1 µg/mL | 1 to 4 µg/mL | 1 to 4 µg/mL | < 1 µg/mL
2 | C[C@@H](O)[C@H]1C(=O)N2C(C(=O)O)=C(SC3CN(C[C@@H]4CCNC4)C3)[C@H](C)[C@H]12 [Example 58, (4R,5S,6S)-6-((R)-1-hydroxyethyl)-4-methyl-7-oxo-3-((1-(((R)-pyrrolidin-3-yl)methyl)azetidin-3-yl)thio)-1-azabicyclo[3.2.0]hept-2-ene-2-carboxylic acid] | 1 to 4 µg/mL | 1 to 4 µg/mL | 1 to 4 µg/mL | < 1 µg/mL | 1 to 4 µg/mL | 1 to 4 µg/mL | < 1 µg/mL
3 | C[C@@H](O)[C@H]1C(=O)N2C(C(=O)O)=C(SC3CN(C[C@H]4CCNC4)C3)[C@H](C)[C@H]12 [Example 59, (4R,5S,6S)-6-((R)-1-hydroxyethyl)-4-methyl-7-oxo-3-((1-(((S)-pyrrolidin-3-yl)methyl)azetidin-3-yl)thio)-1-azabicyclo[3.2.0]hept-2-ene-2-carboxylic acid] | 1 to 4 µg/mL | 1 to 4 µg/mL | 1 to 4 µg/mL | < 1 µg/mL | 1 to 4 µg/mL | 1 to 4 µg/mL | < 1 µg/mL
4 | C[C@@H](O)[C@H]1C(=O)N2C(C(=O)O)=C(SC3CN(C[C@H]4CNCCO4)C3)[C@H](C)[C@H]12 [Example 60, (4R,5S,6S)-6-((R)-1-hydroxyethyl)-4-methyl-3-((1-(((R)-morpholin-2-yl)methyl)azetidin-3-yl)thio)-7-oxo-1-azabicyclo[3.2.0]hept-2-ene-2-carboxylic acid] | 8 to 32 µg/mL | 8 to 32 µg/mL | 1 to 4 µg/mL | < 1 µg/mL | 1 to 4 µg/mL | 1 to 4 µg/mL | < 1 µg/mL
5 | C[C@@H](O)[C@H]1C(=O)N2C(C(=O)O)=C(SC3CN(C[C@@H]4CNCCO4)C3)[C@H](C)[C@H]12 [Example 61, (4R,5S,6S)-6-((R)-1-hydroxyethyl)-4-methyl-3-((1-(((S)-morpholin-2-yl)methyl)azetidin-3-yl)thio)-7-oxo-1-azabicyclo[3.2.0]hept-2-ene-2-carboxylic acid] | 1 to 4 µg/mL | 8 to 32 µg/mL | 1 to 4 µg/mL | < 1 µg/mL | 1 to 4 µg/mL | 1 to 4 µg/mL | < 1 µg/mL
6 | C[C@@H](O)[C@H]1C(=O)N2C(C(=O)O)=C(SC3CN(C[C@H]4CC[C@H](N)CC4)C3)[C@H](C)[C@H]12 [Example 62, (4R,5S,6S)-3-((1-(((1r,4R)-4-aminocyclohexyl)methyl)azetidin-3-yl)thio)-6-((R)-1-hydroxyethyl)-4-methyl-7-oxo-1-azabicyclo[3.2.0]hept-2-ene-2-carboxylic acid] | 1 to 4 µg/mL | 1 to 4 µg/mL | < 1 µg/mL | < 1 µg/mL | 1 to 4 µg/mL | 1 to 4 µg/mL | < 1 µg/mL
7 | C[C@@H](O)[C@H]1C(=O)N2C(C(=O)O)=C(S[C@@H]3CCN(CC4CNCCS4)C3)[C@H](C)[C@H]12 (stereo partly drawn) [Example 63, (4R,5S,6S)-6-((R)-1-hydroxyethyl)-4-methyl-7-oxo-3-(((3R)-1-(thiomorpholin-2-ylmethyl)pyrrolidin-3-yl)thio)-1-azabicyclo[3.2.0]hept-2-ene-2-carboxylic acid] | 8 to 32 µg/mL | 1 to 4 µg/mL | 1 to 4 µg/mL | < 1 µg/mL | 1 to 4 µg/mL | 1 to 4 µg/mL | < 1 µg/mL
8 | C[C@@H](O)[C@H]1C(=O)N2C(C(=O)O)=C(SC3CN(C[C@H]4CC[C@@H](N)CC4)C3)[C@H](C)[C@H]12 [Example 64, (4R,5S,6S)-3-((1-(((1s,4S)-4-aminocyclohexyl)methyl)azetidin-3-yl)thio)-6-((R)-1-hydroxyethyl)-4-methyl-7-oxo-1-azabicyclo[3.2.0]hept-2-ene-2-carboxylic acid] | 1 to 4 µg/mL | 1 to 4 µg/mL | < 1 µg/mL | < 1 µg/mL | 1 to 4 µg/mL | < 1 µg/mL | < 1 µg/mL
9 | C[C@@H](O)[C@H]1C(=O)N2C(C(=O)O)=C(S[C@@H]3CCN(CC4CCNCC4(C)C)C3)[C@H](C)[C@H]12 (stereo partly drawn) [Example 65, (4R,5S,6S)-3-(((3R)-1-((3,3-dimethylpiperidin-4-yl)methyl)pyrrolidin-3-yl)thio)-6-((R)-1-hydroxyethyl)-4-methyl-7-oxo-1-azabicyclo[3.2.0]hept-2-ene-2-carboxylic acid] | 8 to 32 µg/mL | 1 to 4 µg/mL | 1 to 4 µg/mL | < 1 µg/mL | 1 to 4 µg/mL | 1 to 4 µg/mL | < 1 µg/mL
10 | CNC1CCC(CN2CC(SC3=C(C(=O)O)N4C(=O)[C@H]([C@@H](C)O)[C@H]4[C@H]3C)C2)CC1 (stereo partly drawn) [Example 66, (4R,5S,6S)-6-((R)-1-hydroxyethyl)-4-methyl-3-((1-(((1s,4S)-4-(methylamino)cyclohexyl)methyl)azetidin-3-yl)thio)-7-oxo-1-azabicyclo[3.2.0]hept-2-ene-2-carboxylic acid] | 1 to 4 µg/mL | 1 to 4 µg/mL | 1 to 4 µg/mL | < 1 µg/mL | 1 to 4 µg/mL | 1 to 4 µg/mL | < 1 µg/mL
11 | C[C@@H](O)[C@H]1C(=O)N2C(C(=O)O)=C(SC3CN(C[C@H]4CC[C@H](NC(=N)N)CC4)C3)[C@H](C)[C@H]12 [Example 67, (4R,5S,6S)-3-((1-(((1r,4R)-4-guanidinocyclohexyl)methyl)azetidin-3-yl)thio)-6-((R)-1-hydroxyethyl)-4-methyl-7-oxo-1-azabicyclo[3.2.0]hept-2-ene-2-carboxylic acid] | 1 to 4 µg/mL | 1 to 4 µg/mL | < 1 µg/mL | < 1 µg/mL | 1 to 4 µg/mL | 1 to 4 µg/mL | < 1 µg/mL
12 | CN[C@H]1CC[C@H](CN2CC(SC3=C(C(=O)O)N4C(=O)[C@H]([C@@H](C)O)[C@H]4[C@H]3C)C2)CC1 [Example 68, (4R,5S,6S)-6-((R)-1-hydroxyethyl)-4-methyl-3-((1-(((1r,4R)-4-(methylamino)cyclohexyl)methyl)azetidin-3-yl)thio)-7-oxo-1-azabicyclo[3.2.0]hept-2-ene-2-carboxylic acid] | 1 to 4 µg/mL | 1 to 4 µg/mL | 1 to 4 µg/mL | < 1 µg/mL | 1 to 4 µg/mL | 1 to 4 µg/mL | < 1 µg/mL
13 | CCN[C@H]1CC[C@H](CN2CC(SC3=C(C(=O)O)N4C(=O)[C@H]([C@@H](C)O)[C@H]4[C@H]3C)C2)CC1 [Example 69, (4R,5S,6S)-3-((1-(((1r,4R)-4-(ethylamino)cyclohexyl)methyl)azetidin-3-yl)thio)-6-((R)-1-hydroxyethyl)-4-methyl-7-oxo-1-azabicyclo[3.2.0]hept-2-ene-2-carboxylic acid] | 1 to 4 µg/mL | 1 to 4 µg/mL | 1 to 4 µg/mL | < 1 µg/mL | 1 to 4 µg/mL | 1 to 4 µg/mL | < 1 µg/mL
